Experimental data: the CheMixHub viscosity set
Values joined by “and” are separate entries in the source; they are usually repeats but may differ in a detail not shown here. Equal entries are not always repeated.

Key:
[1] = xn = mol fraction of the nth substance listed

OCC1CCCCC1
Conditions | viscosity [mPa·s]
293.15 K, 100 kPa | 37.75

OCCCOCCCO
101 kPa
Conditions | viscosity [mPa·s]
293.15 K | 115
298.15 K | 78.2
303.15 K | 51.1
308.15 K | 37.2
313.15 K | 27.4
318.15 K | 20.8

OCCNCCO
viscosity
Conditions | 293.15 K | 298.15 K | 303.15 K | 308.15 K | 313.15 K | 318.15 K | 323.15 K
101 kPa | 841.5 mPa·s and 742 mPa·s | – | 365.7 mPa·s and 379.3 mPa·s | 263.1 mPa·s | 179.8 mPa·s and 186.4 mPa·s | 134.5 mPa·s | 89.7 mPa·s and 111 mPa·s and 98.85 mPa·s
101.33 kPa | – | 566.3 mPa·s | – | – | – | – | –

c1ccc2ncccc2c1
Conditions | viscosity
293.15 K, 101 kPa | 3.64 mPa·s
293.25 K, 101 kPa | 3.635 mPa·s
298 K, 101.3 kPa | 3.475 mPa·s
298.15 K, 101.33 kPa | 3.36 mPa·s
303 K, 101.3 kPa | 3.092 mPa·s
303.05 K, 101 kPa | 2.943 mPa·s
303.15 K, 101 kPa | 2.94 mPa·s and 3.1 mPa·s
303.15 K, 101.33 kPa | 3.01 mPa·s
308 K, 101.3 kPa | 2.777 mPa·s
308.15 K, 101.33 kPa | 2.68 mPa·s
313 K, 101.3 kPa | 2.489 mPa·s
313.15 K, 101 kPa | 2.385 mPa·s and 2.384 mPa·s
313.15 K, 101.33 kPa | 2.43 mPa·s
318 K, 101.3 kPa | 2.243 mPa·s and 2.242 mPa·s
318.15 K, 101.33 kPa | 2.21 mPa·s
323.15 K, 101.33 kPa | 2.03 mPa·s

COC(C)=O + c1ccccc1
[1], 101 kPa
Conditions | viscosity [mPa·s]
293.15 K, x1 = 0.5 | 0.48
298.15 K, x1 = 0.0436 | 0.587
298.15 K, x1 = 0.1504 | 0.55
298.15 K, x1 = 0.2504 | 0.52
298.15 K, x1 = 0.3483 | 0.494
298.15 K, x1 = 0.441 | 0.472
298.15 K, x1 = 0.4878 | 0.462
298.15 K, x1 = 0.5512 | 0.449
298.15 K, x1 = 0.6492 | 0.431
298.15 K, x1 = 0.7483 | 0.415
298.15 K, x1 = 0.8514 | 0.401
298.15 K, x1 = 0.9486 | 0.389
298.15 K, x2 = 0.1115 | 0.363
298.15 K, x2 = 0.1916 | 0.374
298.15 K, x2 = 0.293 | 0.388
298.15 K, x2 = 0.3964 | 0.407
298.15 K, x2 = 0.4965 | 0.429
298.15 K, x2 = 0.6017 | 0.454
298.15 K, x2 = 0.6991 | 0.482
298.15 K, x2 = 0.7955 | 0.512
298.15 K, x2 = 0.8946 | 0.548
303.15 K, x1 = 0.5 | 0.428
308.15 K, x1 = 0.0436 | 0.513
308.15 K, x1 = 0.1504 | 0.485
308.15 K, x1 = 0.2504 | 0.461
308.15 K, x1 = 0.3483 | 0.441
308.15 K, x1 = 0.441 | 0.423
308.15 K, x1 = 0.4878 | 0.415
308.15 K, x1 = 0.5 | 0.406
308.15 K, x1 = 0.5512 | 0.405
308.15 K, x1 = 0.6492 | 0.39
308.15 K, x1 = 0.7483 | 0.377
308.15 K, x1 = 0.8514 | 0.365
308.15 K, x1 = 0.9486 | 0.356
313.15 K, x2 = 0.1115 | 0.321
313.15 K, x2 = 0.1916 | 0.33
313.15 K, x2 = 0.293 | 0.339
313.15 K, x2 = 0.3964 | 0.354
313.15 K, x2 = 0.4965 | 0.37
313.15 K, x2 = 0.6017 | 0.388
313.15 K, x2 = 0.6991 | 0.407
313.15 K, x2 = 0.7955 | 0.429
313.15 K, x2 = 0.8946 | 0.455

COCCOC + c1ccccc1
[1], 298.15 K, 101 kPa
Conditions | viscosity [mPa·s]
x1 = 0.0878 | 0.571
x1 = 0.1781 | 0.545
x1 = 0.2708 | 0.524
x1 = 0.3662 | 0.504
x1 = 0.4643 | 0.484
x1 = 0.5652 | 0.467
x1 = 0.6691 | 0.45
x1 = 0.7761 | 0.435
x1 = 0.8864 | 0.42

O=C(O)c1ccccc1 + c1ccccc1
viscosity, [1]
Conditions | 303.15 K | 308.15 K | 313.15 K | 318.15 K
101 kPa, x1 = 0.0581 | 0.6414 mPa·s | 0.5991 mPa·s | 0.5625 mPa·s | 0.5267 mPa·s
101 kPa, x1 = 0.105 | – | 0.6626 mPa·s | 0.622 mPa·s | 0.5832 mPa·s
101.33 kPa, x1 = 0.0581 | 0.6414 mPa·s | 0.5991 mPa·s | 0.5625 mPa·s | 0.5267 mPa·s
101.33 kPa, x1 = 0.05813 | – | 0.5991 mPa·s | – | 0.5267 mPa·s
101.33 kPa, x1 = 0.06979 | – | 0.616 mPa·s | – | 0.5401 mPa·s
101.33 kPa, x1 = 0.08477 | – | 0.6421 mPa·s | – | 0.56 mPa·s
101.33 kPa, x1 = 0.105 | – | 0.6626 mPa·s and 0.6626 mPa·s | 0.622 mPa·s | 0.5832 mPa·s and 0.5832 mPa·s
101.33 kPa, x1 = 0.1232 | – | – | – | 0.61 mPa·s
